Laboratory results: patent publication US8637511B2, “Aminopyrimidines useful as kinase inhibitors” (Vertex Pharmaceuticals Incorporated, priority 2005, dated 2014)
Read-outs that look alike come from different tables or passages of the source.

How the values were obtained:
[1] = system: Colo205 cells; assay: Analysis of cell proliferation and viability; assay type: cell-based; settings: Homo sapiens, COLO 205, Colo205 cells, read-out: IC50 value
Description: Colo205 cells were seeded in 96 well plates and serially diluted compound was added to the wells in duplicate. Control groups included untreated cells, the compound diluent (0.1% DMSO alone) and culture medium without cells.
To measure proliferation, 3 h prior to the end of the experiment 0.5 μCi of 3H thymidine was added to each well. Cells were then harvested and the incorporated radioactivity counted on a Wallac microplate beta-counter. Cell viability was assessed using Promega CellTiter 96AQ to measure MTS conversion. Dose response curves were calculated using either Prism 3.0 (GraphPad) or SoftMax Pro 4.3.1 LS (Molecular Devices) software.

[2] = target: T1, JAK3 (Homo sapiens, UniProt P52333); assay: biochemical
T1 sequence (P52333 1-1124): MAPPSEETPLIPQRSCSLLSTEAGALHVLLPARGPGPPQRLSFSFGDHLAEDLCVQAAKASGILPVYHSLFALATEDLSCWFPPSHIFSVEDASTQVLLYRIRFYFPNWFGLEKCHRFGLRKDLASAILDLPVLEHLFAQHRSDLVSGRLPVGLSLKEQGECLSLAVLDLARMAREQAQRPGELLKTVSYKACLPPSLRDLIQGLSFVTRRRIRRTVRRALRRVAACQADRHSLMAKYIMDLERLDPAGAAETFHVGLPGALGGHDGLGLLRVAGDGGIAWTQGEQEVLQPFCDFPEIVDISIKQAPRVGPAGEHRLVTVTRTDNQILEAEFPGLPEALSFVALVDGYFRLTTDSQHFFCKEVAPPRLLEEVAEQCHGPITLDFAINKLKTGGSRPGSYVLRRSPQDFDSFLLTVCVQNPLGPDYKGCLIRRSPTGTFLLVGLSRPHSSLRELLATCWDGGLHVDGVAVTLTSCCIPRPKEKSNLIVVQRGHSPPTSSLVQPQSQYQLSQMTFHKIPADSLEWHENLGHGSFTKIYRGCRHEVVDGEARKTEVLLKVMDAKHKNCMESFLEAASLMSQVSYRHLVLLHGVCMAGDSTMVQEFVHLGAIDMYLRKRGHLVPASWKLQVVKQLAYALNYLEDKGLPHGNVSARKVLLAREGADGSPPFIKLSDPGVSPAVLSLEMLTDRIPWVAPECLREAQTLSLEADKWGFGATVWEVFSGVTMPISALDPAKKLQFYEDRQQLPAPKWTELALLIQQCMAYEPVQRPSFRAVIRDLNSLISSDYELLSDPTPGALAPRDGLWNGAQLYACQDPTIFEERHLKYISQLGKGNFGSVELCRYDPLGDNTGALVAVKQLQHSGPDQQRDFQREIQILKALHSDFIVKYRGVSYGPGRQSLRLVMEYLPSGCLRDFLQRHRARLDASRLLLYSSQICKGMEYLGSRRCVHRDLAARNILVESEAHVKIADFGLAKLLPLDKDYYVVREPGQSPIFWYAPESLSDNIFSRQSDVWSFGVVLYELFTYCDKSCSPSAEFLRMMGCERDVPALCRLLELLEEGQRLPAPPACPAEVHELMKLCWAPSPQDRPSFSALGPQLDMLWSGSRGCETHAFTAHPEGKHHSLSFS

[3] = target: T2, FLT-3 (Homo sapiens, UniProt P36888); assay: FLT-3 inhibition assay, radiometric filter-binding; assay type: biochemical
T2 sequence (P36888 27-993): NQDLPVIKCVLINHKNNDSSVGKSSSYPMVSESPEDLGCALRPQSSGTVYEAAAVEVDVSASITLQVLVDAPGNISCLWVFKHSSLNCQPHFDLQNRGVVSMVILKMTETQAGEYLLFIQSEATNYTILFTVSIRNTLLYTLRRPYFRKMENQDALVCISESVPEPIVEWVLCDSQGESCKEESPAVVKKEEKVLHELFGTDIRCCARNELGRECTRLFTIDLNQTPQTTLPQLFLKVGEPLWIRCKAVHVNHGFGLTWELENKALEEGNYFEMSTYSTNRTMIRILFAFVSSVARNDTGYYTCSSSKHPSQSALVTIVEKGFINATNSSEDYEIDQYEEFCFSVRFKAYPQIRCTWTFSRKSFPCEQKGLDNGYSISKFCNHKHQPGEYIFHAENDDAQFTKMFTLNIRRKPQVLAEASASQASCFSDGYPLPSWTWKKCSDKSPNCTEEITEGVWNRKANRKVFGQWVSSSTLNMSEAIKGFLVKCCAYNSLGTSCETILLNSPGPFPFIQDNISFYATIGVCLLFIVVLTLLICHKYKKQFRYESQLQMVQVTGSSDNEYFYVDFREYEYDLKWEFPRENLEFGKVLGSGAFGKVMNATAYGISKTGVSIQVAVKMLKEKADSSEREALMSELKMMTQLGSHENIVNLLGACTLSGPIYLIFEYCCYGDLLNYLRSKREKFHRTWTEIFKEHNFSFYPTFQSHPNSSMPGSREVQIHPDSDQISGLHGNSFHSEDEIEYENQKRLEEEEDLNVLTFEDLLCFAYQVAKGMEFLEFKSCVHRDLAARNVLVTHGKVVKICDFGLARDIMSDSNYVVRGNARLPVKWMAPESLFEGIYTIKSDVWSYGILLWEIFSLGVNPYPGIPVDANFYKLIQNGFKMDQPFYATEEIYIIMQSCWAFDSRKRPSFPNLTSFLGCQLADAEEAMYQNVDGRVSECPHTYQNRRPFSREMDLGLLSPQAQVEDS
Description: This assay monitors the 33P incorporation into a substrate poly(Glu, Tyr) 4:1 (pE4Y). […] Final substrate concentrations in the assay were 90 μM ATP and 0.5 mg/ml pE4Y (both from Sigma Chemicals, St. Louis, Mo.). […] Reactions were carried out at room temperature.
Two assay solutions were prepared. Solution 1 contains 100 mM HEPES (pH 7.5), 10 mM MgCl2, 25 mM NaCl, 1 mg/ml pE4Y and […] (containing 0.3 mCi of [γ-33^P]ATP for each reaction). Solution 2 contains 100 mM HEPES (pH 7.5), 10 mM MgCl2, 25 mM NaCl, 2 mM DTT, 0.02% BSA and 3 nM FLT-3. The assay was run on a 96 well plate by mixing 50 μl each of Solution 1 and […] of the compounds of the present invention. The reaction was initiated with Solution 2. […] All of the reaction volume was then transferred to a filter plate and washed with 5% TCA by a Harvester 9600 from TOMTEC (Hamden, Conn.). The amount of ^33P incorporation into pE4y was analyzed by a Packard Top Count Microplate Scintillation Counter (Meriden, Conn.). The data was fitted using Prism software to get an IC50 or Ki.

[4] = target: Aurora-1 (Aurora B) (Homo sapiens, UniProt Q96GD4); assay: Aurora-1 (Aurora B) inhibition assay (radiometric); assay type: biochemical; settings: read-out: Aurora B kinase Ki value
Description: An assay buffer solution was prepared which consisted of 25 mM HEPES (pH 7.5), 10 mM MgCl2, 0.1% BSA and 10% glycerol. […] To 22 μL of the Aurora-B solution, in a 96-well plate, was added 2 μl of a compound stock solution in DMSO and the mixture allowed to equilibrate for 10 minutes at 25° C. The enzyme reaction was initiated by the addition of 16 μl stock [γ-^33P]-ATP solution (˜20 nCi/μL) prepared in assay buffer, to a final assay concentration of 800 μM. The reaction was stopped after 3 hours by the addition of 16 μL 500 mM phosphoric acid and the levels of ^33P incorporation into the peptide substrate were determined by the following method.
A phosphocellulose 96-well plate (Millipore, Cat no. MAPHNOB50) was pre-treated with 100 μL of a 100 mM phosphoric acid prior to the addition of the enzyme reaction mixture (40 μL). The solution was left to soak on to the phosphocellulose membrane for 30 minutes and the plate subsequently washed four times with 200 μL of a 100 mM phosphoric acid. […] Levels of non-enzyme catalyzed background radioactivity were determined by adding 16 μL of the 500 mM phosphoric acid to control wells, containing all assay components (which acts to denature the enzyme), prior to the addition of the [γ-^33P]-ATP solution. Levels of enzyme catalyzed. ^33P incorporation were calculated by subtracting mean background counts from those measured at each inhibitor concentration. […] Ki values were calculated from initial rate data by non-linear regression using the Prism software package (Prism 3.0, Graphpad Software, San Diego, Calif.).

[5] = target: T3, Aurora-2 (Aurora A) (Homo sapiens, UniProt O14965); assay: Aurora-2 (Aurora A) inhibition assay, coupled enzyme; assay type: biochemical; settings: read-out: Aurora A kinase Ki value
T3 sequence (O14965 1-403): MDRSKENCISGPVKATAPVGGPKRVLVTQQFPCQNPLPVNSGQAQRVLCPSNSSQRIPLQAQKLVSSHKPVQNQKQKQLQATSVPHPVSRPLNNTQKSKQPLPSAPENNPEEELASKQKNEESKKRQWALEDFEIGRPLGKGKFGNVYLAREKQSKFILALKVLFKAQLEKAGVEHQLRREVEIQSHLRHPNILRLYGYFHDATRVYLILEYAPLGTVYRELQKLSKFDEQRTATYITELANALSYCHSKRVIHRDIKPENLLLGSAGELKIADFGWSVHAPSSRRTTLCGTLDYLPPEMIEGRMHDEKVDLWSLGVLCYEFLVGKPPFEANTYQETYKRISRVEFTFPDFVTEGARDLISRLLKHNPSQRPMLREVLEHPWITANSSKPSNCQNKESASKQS
Description: Assays were carried out in a mixture of 100 mM Hepes (pH7.5), 10 mM MgCl2, 1 mM DTT, 25 mM NaCl, 2.5 mM phosphoenolpyruvate, 300 μM NADH, 30 μg/ml pyruvate kinase and 10 μg/ml lactate dehydrogenase. […] Assays were carried out at 30° C. and in the presence of 40 nM Aurora-2.
The plate was preincubated for 10 minutes at 30° C. and the reaction initiated by addition of 10 μl of Aurora-2. Initial reaction rates were determined with a Molecular Devices SpectraMax Plus plate reader over a 10 minute time course. IC50 and Ki data were calculated from non-linear regression analysis using the Prism software package (GraphPad Prism version 3.0cx for Macintosh, GraphPad Software, San Diego Calif., USA).

Chain of Aurora-1 (Aurora B) (Q96GD4 whole entry): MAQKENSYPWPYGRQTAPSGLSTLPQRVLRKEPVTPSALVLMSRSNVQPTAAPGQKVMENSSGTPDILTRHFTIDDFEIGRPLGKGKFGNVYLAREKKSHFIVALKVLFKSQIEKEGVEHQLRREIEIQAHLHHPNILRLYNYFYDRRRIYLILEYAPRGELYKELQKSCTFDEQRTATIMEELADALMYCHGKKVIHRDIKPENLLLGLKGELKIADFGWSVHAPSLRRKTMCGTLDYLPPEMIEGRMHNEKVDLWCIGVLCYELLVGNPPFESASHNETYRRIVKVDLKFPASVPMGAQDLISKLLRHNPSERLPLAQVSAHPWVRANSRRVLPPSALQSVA

| Ki ([3]; read-out: FLT-3 Ki value) [nM] | Ki [5] [nM] | SMILES | IC50 ([1]; incubated for 72 hours) [nM] | Ki [2] [nM] | Ki [3] [nM] | Ki [4] [nM] | Ki ([2]; read-out: JAK3 Ki value) [nM] | IC50 ([1]; incubated for 96 hours) [nM] |
| --- | --- | --- | --- | --- | --- | --- | --- | --- |
|  |  | Cc1cc(Nc2cc(N3CC(N4CCOCC4)C3)nc(Sc3ccc4nc(C(F)(F)F)n(C)c4c3)n2)[nH]n1 [Compound 195] | 30 to 200 | 10 to 500 | 150 to 1000 | ≤ 10 |  |  |
|  |  | Cc1cc(Nc2cc(N3CC(F)(C4CC4)C3)nc(Sc3ccc4ccn(CC(F)(F)F)c(=O)c4c3)n2)[nH]n1 [Compound 189] | > 200 |  | 50 to 150 | 50 to 2000 | 10 to 500 |  |
|  |  | Cc1cc(Nc2cc(N3CCC3)nc(Sc3ccc(N(C)C(=O)c4c(F)cccc4F)cc3)n2)n[nH]1 [Compound 11] |  | 10 to 500 | 150 to 1000 | 50 to 2000 |  | 50 to 1000 |
| 150 to 1000 | 1 to 5 | Cc1cc(Nc2cc(N3CCC3)nc(Sc3ccc(NC(=O)C4(C(F)(F)F)CC4)cc3)n2)[nH]n1 [Compound 142] | 30 to 200 |  |  | ≤ 10 |  |  |
| 150 to 1000 | 1 to 5 | Cc1cc(Nc2cc(N3CC(F)(C4CC4)C3)nc(Sc3ccc(NC(=O)[C@H]4CCCN4C(C)C)cc3)n2)[nH]n1 [Compound 193] | > 200 |  |  | 50 to 2000 |  |  |
| 150 to 1000 | 5 to 200 | Cc1cc(Nc2cc(N3CCC3)nc(Sc3ccc(NC(=O)c4ccc(CN5CCC5)cc4)cc3)n2)[nH]n1 [Compound 139] |  |  |  | 50 to 2000 |  | 50 to 1000 |
|  |  | Cc1cc(Nc2cc(CN3CCC3)nc(Sc3ccc(NC(=O)c4ccccc4C(F)(F)F)cc3)n2)[nH]n1 [Compound 132] | > 200 | 500 to 2000 | 150 to 1000 | 10 to 50 |  | 50 to 1000 |
